# Results reported in patent US20050004005A1, “Methods of treating diseases responsive to Induction of Apoptosis” (priority 2003, published 2005).
# What was measured:
# caspase cascade [1] = test: Activation of the caspase cascade and induction of apoptosis in cells (earlier Cai et al. applications); assay type: cell-based; details: typically
# caspase cascade [2] = details: as described in Ser. No. 10/164,705 and 60/433,953; cited from earlier work
# GST-Tip47 = target: T1, GST-Tip47 (Homo sapiens, UniProt O60664, I56V/V275A); test: Binding of tritiated compound to GST-Tip47 immobilized on anti-GST Protein A Sepharose, scintillation counting; details: 2 μM compound, 1 hour room temperature, TBS pH 8.0, FIG. 1A
# T1 construct: Full-length Tip47 cDNA was cloned into the pGEX-4T-1; made in house; host or cells: E. coli BL-21
# T1 sequence (O60664 1-434 I56V/V275A): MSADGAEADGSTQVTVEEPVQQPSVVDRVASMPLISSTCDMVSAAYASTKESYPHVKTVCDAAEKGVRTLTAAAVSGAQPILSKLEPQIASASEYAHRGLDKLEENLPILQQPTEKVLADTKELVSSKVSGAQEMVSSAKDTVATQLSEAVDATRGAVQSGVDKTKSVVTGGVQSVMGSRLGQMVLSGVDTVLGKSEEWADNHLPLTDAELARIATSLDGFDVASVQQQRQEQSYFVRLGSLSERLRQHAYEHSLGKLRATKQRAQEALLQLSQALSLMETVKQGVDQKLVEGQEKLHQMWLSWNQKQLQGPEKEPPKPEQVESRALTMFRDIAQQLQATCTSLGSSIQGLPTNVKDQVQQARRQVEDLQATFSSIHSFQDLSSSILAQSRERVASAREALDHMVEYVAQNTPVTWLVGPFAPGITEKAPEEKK
# Method: 2 μM 3-(3,5-ditritium-4-azidophenyl)-5-(3-chloro-thiophen-2-yl)-[1,2,4]-oxadiazole (Example 3) was added to either Protein A Sepharose only, Protein A Sepharose plus anti-GST antibody, anti-GST/Protein A Sepharose plus GST only, or anti-GST/Protein A Sepharose plus GST-Tip47. After TBS washes, eluate was counted on a scintillation counter.
# Full-length Tip47 cDNA was cloned into the pGEX-4T-1, a glutathione S-transferase (GST) gene fusion system (Amersham, Piscataway, N.J.) using standard methods. Briefly, PCR primers to the 5′ and 3′ region of the gene were designed to contain restriction sites that allowed for the in frame cloning of Tip47 into the pGEX-4T-1 vector. Subsequent to sequence verification, the pGEX-Tip47 construct was transformed into the E.Coli BL-21 strain.
# In order to perform binding studies on Tip47, GST-Tip47 was immobilized on Sepharose. To begin, 10 μg of anti-GST antibody (cat. # sc-459, rabbit polyclonal, Santa Cruz Biotechnology, Santa Cruz, Calif.) was incubated with 20 μl of protein A Sepharose (Zymed, South San Francisco, Calif.), in TBS (pH 8.0), total volume 200 μl, for 1 hour at room temperature. Beads were washed 3 times with TBS (pH 8.0). […] Eluates were added to 5 ml of scintillation cocktail and counted using ^3H protocol. […]
# Tip47 = target: T2, Tip47 (Homo sapiens, UniProt O60664, I56V/V275A); test: Photolabeling of T47D cytosol, immunoprecipitation with anti-Tip47, SDS-PAGE and autoradiography; assay type: binding; details: T47D cytosol labeled with 20 nM compound, UV 254 nm, anti-fibronectin as control, FIG. 1B
# T2 construct: This supernatant is T47D cytosol; endogenous in cells; host or cells: T47D breast cancer cells
# T2 sequence (O60664 1-434 I56V/V275A): T1 sequence (O60664 1-434 I56V/V275A)
# Method: T47D cytosol was labeled with 20 nM 3-(3,5-ditritium-4-azidophenyl)-5-(3-chloro-thiophen-2-yl)-[1,2,4]-oxadiazole (Example 3) and immunoprecipitated with anti-fibronectin (as a control) or anti-Tip47. The immunoprecipitated complex was subject to SDS-PAGE and autoradiography.
# For immunoprecipitations, T47D cells were first washed in PBS and then resuspended in CLB Buffer (10 mM HEPES, 10 mM NaCl, 1 mM KH2PO4, 5 mM NaHCO3, 1 mM CaCl2, 0.5 mM MgCl2, 5 mM EDTA) plus 0.1% protease inhibitor cocktail (Sigma, St. Louis, Mo.). Cells were allowed to swell in 5 minutes at room temperature and then were homogenized in a tight fitting Dounce homogenizer with 50 strokes. Lysate was spun 2,200×g, 5 minutes, at 4° C. The supernatant was then spun at 100,000×g, 40 minutes at 4° C. This resulting supernatant was called T47D cytosol. Protein concentration determined by the D/C Protein Assay (Bio-Rad, Hercules, Calif.).
# 20 riM 3-(3,5-ditritium-4-azidophenyl)-5-(3-chloro-thiophen-2-yl)-[1,2,4]-oxadiazole (Example 3) (stock is 20 μM, 1 mCi/ml, 50 Ci/mmol) was added to 1 mg T47D cytosol in 1 ml CLB Buffer and incubated, rocking, for 30 minutes at room temperature. Lysates were then exposed to a Short Wave UV Source (254 nm) for 10 minutes.
# Labeled lysates were pre-cleared with 50 μl solution of Protein A Sepharose (Zymed, South San Francisco, Calif.) for 2 hours at 4° C. […]
# Tail Interacting Protein = target: T3, Tail Interacting Protein (Homo sapiens, UniProt O60664, I56V/V275A); test: Photo-affinity radiolabeling of T47D cytosol, two-dimensional gel and autoradiography; assay type: binding; details: 200 nM compound, 300 μg T47D cytosol, UV 254 nm 10 minutes
# T3 construct: This supernatant is T47D cytosol; endogenous in cells; host or cells: T47D breast cancer cells
# T3 sequence (O60664 1-434 I56V/V275A): T1 sequence (O60664 1-434 I56V/V275A)
# Method: Isolation of Tail Interacting Protein from Cell Extracts by Photo-affinity Radiolabeling: T47D breast cancer cell line was grown in RPMI 1640 medium containing 25 mM Hepes and L-glutamine (Gibco) supplemented with 10% FCS and penicillin/streptomycin. 8×10^6 T47D cells in 25 mL medium were plated on a 100 mm dish and grown overnight in RPMI medium supplemented with 10% FCS and penicillin/streptomycin. Cells were scraped with Cell lifter (Fisher) into a conical tube and centrifuged for 5 minutes at 450×g. Cells were washed one time with 1 mL PBS (1,160×g for 3 minutes) and then resuspended in 0.25 mL Cell Lysis Buffer (CLB) (10 mM HEPES, pH 7.2, 10 mM NaCl, 1 mM KH2PO4, 5 mM NaHCO3, 1 mM CaCl2, 0.5 mM MgCl2, 5 mM EDTA) plus 0.1% Protease Inhibitor Cocktail (Sigma). Cells were allowed to swell 5 minutes at room temperature and then homogenized using Dounce homogenizer and Type A pestle (tight) 50 times on ice. After centrifugation at 2,200×g, for 5 minutes, 4° C., the supernatant was spun at 108,000×g, for 40 minutes at 4° C. This supernatant is T47D cytosol. Protein concentration is determined by BioRad DC assay.
# 300 μg T47D cytosol in 100 μL CLB was added in the well of a 96-well plate. […]
# cyclin D1 = test: Realtime PCR of mRNA levels in compound-treated T47D cells; assay type: cell-based; details: 5 μM, 18 h, versus DMSO, FIG. 2
# Method: FIG. 2: The effect of 5-(3-chlorothiophen-2-yl)-3-(5-chloro-pyridin-2-yl)-[1,2,4]-oxadiazole on mRNA levels of genes of interest. T47D cells were treated for 18 h with 5 μM of 5-(3-chlorothiophen-2-yl)-3-(5-chloro-pyridin-2-yl)-[1,2,4]-oxadiazole or DMSO and total RNA was then isolated. mRNA levels of TGFbeta, p21, cyclin D1, IGF2R, and IGFBP3 were quantitated using realtime PCR as fold change of treatment/control.
# For cDNA synthesis and quantitative PCR, total RNA was extracted using the TRIzol reagent (Invitrogen Corporation, Carlsbad, Calif.) according to the manufacturer's instructions. Total RNA was quantitated, denatured, and electrophoresed in an agarose-formaidehyde gei to determine integrity of total RNA. 2 μg of total RNA was then used to make cDNA by reverse transcription using the Retroscript cDNA synthesis kit (Ambion Austin, Tex.) according to the manufacturer's instructions. Quantitative PCR was done by Sybrgreen incorporation using the Quantitect kit (Qiagen, Valencia, Calif.) on the LightCycler (Roche Molecular Biochemicals, Mannheim, Germany) using standard conditions. Data was normalized against the housekeeping gene, cyclophilin. The cells transfected with cyclophilin as a control was normalized against glyceraldehyde phosphate dehydrogenase (GAPD).
smiles,measurement,setting,value
"[N-]=[N+]=Nc1ccc(-c2noc(-c3sccc3Cl)n2)cc1 [3-(4-Azidophenyl)-5-(3-chloro-thiophen-2-yl)-[1,2,4]-oxadiazole]",Time to induction of apoptosis in cells upon binding to TIPRAIP,caspase cascade [1],24 to 48 h
same,Activation of the caspase cascade and of apoptosis,caspase cascade [2],potent and highly efficacious activators of the caspase cascade
"[3H]c1cc(-c2noc(-c3sccc3Cl)n2)cc([3H])c1N=[N+]=[N-] [Example 3, 3-(3,5 -Ditritium-4-azidophenyl)-5-(3-chloro-thiophen-2-yl)-[1,2,4]-oxadiazole]",Binding to GST-Tip47 immobilized on α-GST-Protein A-Sepharose,GST-Tip47,binding to GST-Tip47
same,Binding to immunoprecipitated Tip47 from cell lysates,Tip47,binding to immunoprecipitated Tip47
same,Radiolabeled protein on 2-D gel autoradiography,Tail Interacting Protein,single radiolabeled spot
"Clc1ccc(-c2noc(-c3sccc3Cl)n2)nc1 [compound A, 5-(3-chlorothiophen-2-yl)-3-(5-chloro-pyridin-2-yl)-[1,2,4]-oxadiazole]",Gene expression profile: cyclin D1 mRNA level,cyclin D1,down regulation of cyclin D1
